# Measured values as given in ChEMBL document CHEMBL6127127, “Structure-Guided Design of Affinity/Covalent-Bond Dual-Driven Inhibitors Targeting the AMP Site of FBPase” (J Med Chem, 2024).
# Active and inactive are the calls of the source. The rule behind the calls is not given here.
# How the values were obtained:
# [1] = (§1) Inhibition of recombinant wildtype N-terminus SYYHHHHHH-tagged human fructose 1,6-bisphosphatase extracted from Escherichia coli BL21 (DE3) cells using fructose1,6-bisphosphate as substrate assessed as NADP+ reduction to NADPH in presence of NADP+, PGI and G6PDH by spectrophotometric analysis
# Homo sapiens [2] = organism: Homo sapiens; test: as §1, with “recombinant” for “recombinant wildtype”, “Kinact” for “NADP+ reduction”, “Ki ratio incubated for 12 to 40 mins” for “NADPH”; details: time 12-40 min
# [3] = molecular target: Fructose-1,6-bisphosphatase 1 (Homo sapiens, UniProt P09467, C180S); test: Inhibition of N-terminus SYYHHHHHH-tagged human fructose 1,6-bisphosphatase C179S mutant extracted from Escherichia coli BL21 (DE3) cells using fructose1,6-bisphosphate as substrate assessed as NADP+ reduction to NADPH in presence of NADP+, PGI and G6PDH by spectrophotometric analysis
# Homo sapiens [4] = organism: Homo sapiens; test: as §1, with “recombinant” for “recombinant wildtype”, “inactivation rate constant incubated for 12” for “NADP+ reduction”, “40 mins” for “NADPH”; details: time 12-40 min
# Homo sapiens [5] = organism: Homo sapiens; test: (§2) Selectivity ratio of IC50 for inhibition of N-terminus SYYHHHHHH-tagged human fructose 1,6-bisphosphatase C128S mutant extracted from Escherichia coli BL21 (DE3) cells to IC50 for inhibition of wildtype N-terminus SYYHHHHHH-tagged human fructose 1,6-bisphosphatase extracted from Escherichia coli BL21 (DE3) cells
# Homo sapiens [6] = organism: Homo sapiens; test: as §2, with “C179S” for “C128S”
# [7] = as §1, with “recombinant” for “recombinant wildtype”, “inhibition constant incubated for 12” for “NADP+ reduction”, “40 mins” for “NADPH”
# [8] = molecular target: Fructose-1,6-bisphosphatase 1 (Homo sapiens, UniProt P09467, C129S); test: Inhibition of N-terminus SYYHHHHHH-tagged human fructose 1,6-bisphosphatase C128S mutant extracted from Escherichia coli BL21 (DE3) cells using fructose1,6-bisphosphate as substrate assessed as NADP+ reduction to NADPH in presence of NADP+, PGI and G6PDH by spectrophotometric analysis
# [9] = system: Fructose-1,6-bisphosphatase 1 (Homo sapiens), P09467 [UNDEFINED MUTATION]; test: Binding affinity to N-terminus SYYHHHHHH-tagged human fructose 1,6-bisphosphatase C281S mutant (Cys179 residue) extracted from Escherichia coli BL21 (DE3) cells at 20 uM by Western blot analysis
# [10] = system: Fructose-1,6-bisphosphatase 1 (Homo sapiens), P09467 [UNDEFINED MUTATION]; test: Binding affinity to N-terminus SYYHHHHHH-tagged human fructose 1,6-bisphosphatase C128S mutant (Cys179 residue) extracted from Escherichia coli BL21 (DE3) cells at 20 uM by Western blot analysis
# Homo sapiens [11] = organism: Homo sapiens; test: Binding affinity to recombinant wildtype N-terminus SYYHHHHHH-tagged human fructose 1,6-bisphosphatase (Cys179 residue) extracted from Escherichia coli BL21 (DE3) cells at 20 uM by Western blot analysis
# [12] = system: Fructose-1,6-bisphosphatase 1 (Homo sapiens), P09467 [UNDEFINED MUTATION]; test: Binding affinity to N-terminus SYYHHHHHH-tagged human fructose 1,6-bisphosphatase C38S mutant (Cys179 residue) extracted from Escherichia coli BL21 (DE3) cells at 20 uM by Western blot analysis
# [13] = system: Fructose-1,6-bisphosphatase 1 (Homo sapiens), P09467 [UNDEFINED MUTATION]; test: Binding affinity to N-terminus SYYHHHHHH-tagged human fructose 1,6-bisphosphatase C116S mutant (Cys179 residue) extracted from Escherichia coli BL21 (DE3) cells at 20 uM by Western blot analysis
# L02 = test: Binding affinity to fructose 1,6-bisphosphatase in human L02 cells incubated for 2 hrs by SDS-PAGE and western blot based pull down assay; assay type: cell-based; details: dose 10-40 µM
# [14] = system: Fructose-1,6-bisphosphatase 1 (Homo sapiens), P09467 [UNDEFINED MUTATION]; test: Binding affinity to N-terminus SYYHHHHHH-tagged human fructose 1,6-bisphosphatase C179S mutant extracted from Escherichia coli BL21 (DE3) cells at 20 uM by Western blot analysis
# [15] = system: Fructose-1,6-bisphosphatase 1 (Homo sapiens), P09467 [UNDEFINED MUTATION]; test: Binding affinity to N-terminus SYYHHHHHH-tagged human fructose 1,6-bisphosphatase C92S mutant (Cys179 residue) extracted from Escherichia coli BL21 (DE3) cells at 20 uM by Western blot analysis
# [16] = system: Fructose-1,6-bisphosphatase 1 (Homo sapiens), P09467 [UNDEFINED MUTATION]; test: Binding affinity to N-terminus SYYHHHHHH-tagged human fructose 1,6-bisphosphatase C183S mutant (Cys179 residue) extracted from Escherichia coli BL21 (DE3) cells at 20 uM by Western blot analysis
# Homo sapiens [17] = organism: Homo sapiens; test: Binding affinity to recombinant wildtype N-terminus SYYHHHHHH-tagged human fructose 1,6-bisphosphatase extracted from Escherichia coli BL21 (DE3) cells by Western blot analysis; details: dose 10-80 µM
# Mus musculus = test: Antidiabetic activity in db/db mouse model assessed as reduction in blood glucose level at 250 mg/kg, ip preadministered with compound for 8 hrs followed by free feeding and measured after 16 hrs by glucometer; assay type: functional, organism-based; details: time 24.0 hrs
# Sequence of Fructose-1,6-bisphosphatase 1 (Homo sapiens), P09467 [UNDEFINED MUTATION] (P09467 whole entry, looked up, stated change not applied): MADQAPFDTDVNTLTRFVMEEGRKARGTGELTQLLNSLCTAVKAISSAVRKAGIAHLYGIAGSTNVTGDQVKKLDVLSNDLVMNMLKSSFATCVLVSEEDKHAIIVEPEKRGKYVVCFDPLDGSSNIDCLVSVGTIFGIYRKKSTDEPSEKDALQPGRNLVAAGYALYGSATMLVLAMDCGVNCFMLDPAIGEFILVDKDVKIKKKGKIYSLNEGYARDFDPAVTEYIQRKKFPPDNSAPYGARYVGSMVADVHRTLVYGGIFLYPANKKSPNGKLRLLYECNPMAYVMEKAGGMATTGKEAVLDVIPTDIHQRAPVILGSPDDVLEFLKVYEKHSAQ
# Sequence of Fructose-1,6-bisphosphatase 1 (Homo sapiens, UniProt P09467, C129S) (P09467 2-338 C129S limits assumed): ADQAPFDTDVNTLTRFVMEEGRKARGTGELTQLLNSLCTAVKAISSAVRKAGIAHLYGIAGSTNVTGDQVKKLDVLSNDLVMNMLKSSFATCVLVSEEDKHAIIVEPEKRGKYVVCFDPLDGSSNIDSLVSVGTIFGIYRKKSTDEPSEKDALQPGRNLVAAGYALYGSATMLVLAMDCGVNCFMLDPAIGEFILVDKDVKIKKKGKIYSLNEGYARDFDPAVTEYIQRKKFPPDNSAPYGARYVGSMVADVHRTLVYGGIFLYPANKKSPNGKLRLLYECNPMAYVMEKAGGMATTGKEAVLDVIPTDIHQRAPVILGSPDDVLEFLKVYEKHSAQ
# Sequence of Fructose-1,6-bisphosphatase 1 (Homo sapiens, UniProt P09467, C180S) (P09467 2-338 C180S limits assumed): as the sequence (P09467 2-338 C129S limits assumed) above, with S128C, C179S counted along it
smiles,measurement,setting,value
O=C(CCl)NCCc1ccc(S(=O)(=O)NC(=O)Nc2cccc(Br)c2)cc1,IC50,[1],36.2 µM
O=C(Nc1cccc(Br)c1)NS(=O)(=O)c1ccccc1,IC50,[1],13.6 µM
CCc1ccc(NC(=O)NS(=O)(=O)c2ccc(CCNC(=O)CBr)cc2)cc1,IC50,[1],2.75 µM
N#Cc1ccc(C(=O)Nc2ccc(S(=O)(=O)NC(=O)Nc3cccc(Br)c3)cc2)cc1,IC50,[1],14.8 µM
O=C(CBr)NCCc1ccc(S(=O)(=O)NC(=O)Nc2ccc([N+](=O)[O-])cc2)cc1,IC50,[1],19.3 µM
Cc1ccc(NC(=O)NS(=O)(=O)c2ccc(CCNC(=O)CBr)cc2)cc1,IC50,[1],7.48 µM
O=C(CBr)Nc1ccc(S(=O)(=O)NC(=O)Nc2cccc(Br)c2)cc1,IC50,[1],14.8 µM
O=C(CBr)NCCc1ccc(S(=O)(=O)NC(=O)Nc2ccc(F)cc2)cc1,IC50,[1],3.94 µM
O=C(CBr)NCCc1ccc(S(=O)(=O)NC(=O)Nc2cccc(Br)c2)cc1,IC50,[1],2.06 µM
same,Ratio,Homo sapiens [2],240 M⁻¹ s⁻¹
same,IC50,[3],122 µM
same,Kinact,Homo sapiens [4],0.002 s⁻¹
same,Ratio IC50,Homo sapiens [5],2.3
same,Ratio IC50,Homo sapiens [6],59
same,Ki,[7],7.13 µM
same,IC50,[8],4.7 µM
C/C=C/C(=O)NCCc1ccc(S(=O)(=O)NC(=O)Nc2cccc(Br)c2)cc1,IC50,[1],> 500 µM
Cc1cc(NC(=O)NS(=O)(=O)c2ccc(CCNC(=O)CBr)cc2)no1,IC50,[1],13.3 µM
C#Cc1ccc(NC(=O)c2ccc(S(=O)(=O)NC(=O)Nc3cccc(Br)c3)cc2)cc1,IC50,[1],> 500 µM
C#CCOc1ccc(NC(=O)NS(=O)(=O)c2ccc(CCNC(=O)CBr)cc2)cc1,IC50,[1],8.9 µM
same,Activity,[9],Active
same,Activity,[10],Active
same,Activity,Homo sapiens [11],Active
same,Activity,[12],Active
same,Activity,[13],Active
same,Activity,L02,Dose-Dependent Effect
same,Activity,[14],inactive
same,Activity,[15],Active
same,Activity,[16],Active
same,Activity,Homo sapiens [17],Dose-Dependent Effect
O=C(CBr)NCCc1ccc(S(=O)(=O)NC(=O)Nc2ccc3scnc3c2)cc1,IC50,[1],2.94 µM
O=C(Nc1cccc(Br)c1)NS(=O)(=O)c1ccc(NC(=O)c2ccc(F)cc2)cc1,IC50,[1],81.8 µM
O=C(Nc1cccc(Br)c1)NS(=O)(=O)c1ccc(NC(=O)c2ccc(Cl)nc2)cc1,IC50,[1],3.55 µM
same,IC50,[3],7.83 µM
same,Ratio IC50,Homo sapiens [5],20
same,Ratio IC50,Homo sapiens [6],2.2
same,IC50,[8],71.8 µM
CN(C)C(=N)NC(=N)N,Activity,Mus musculus,inactive
